Results: paper PMC9003190, “MeNINV1: An Alkaline/Neutral Invertase Gene of Manihot esculenta, Enhanced Sucrose Catabolism and Promoted Plant Vegetative Growth in Transgenic Arabidopsis” (Plants, 2022)

T1: MeNINV1 (Manihot esculenta, UniProt G5DC09)
T1 construct: gene NINV1; full-length ORF in pDR195, expressed in invertase-deficient yeast SEY2102; crude enzyme supernatant, empty-vector control
T1 sequence (G5DC09 1-685): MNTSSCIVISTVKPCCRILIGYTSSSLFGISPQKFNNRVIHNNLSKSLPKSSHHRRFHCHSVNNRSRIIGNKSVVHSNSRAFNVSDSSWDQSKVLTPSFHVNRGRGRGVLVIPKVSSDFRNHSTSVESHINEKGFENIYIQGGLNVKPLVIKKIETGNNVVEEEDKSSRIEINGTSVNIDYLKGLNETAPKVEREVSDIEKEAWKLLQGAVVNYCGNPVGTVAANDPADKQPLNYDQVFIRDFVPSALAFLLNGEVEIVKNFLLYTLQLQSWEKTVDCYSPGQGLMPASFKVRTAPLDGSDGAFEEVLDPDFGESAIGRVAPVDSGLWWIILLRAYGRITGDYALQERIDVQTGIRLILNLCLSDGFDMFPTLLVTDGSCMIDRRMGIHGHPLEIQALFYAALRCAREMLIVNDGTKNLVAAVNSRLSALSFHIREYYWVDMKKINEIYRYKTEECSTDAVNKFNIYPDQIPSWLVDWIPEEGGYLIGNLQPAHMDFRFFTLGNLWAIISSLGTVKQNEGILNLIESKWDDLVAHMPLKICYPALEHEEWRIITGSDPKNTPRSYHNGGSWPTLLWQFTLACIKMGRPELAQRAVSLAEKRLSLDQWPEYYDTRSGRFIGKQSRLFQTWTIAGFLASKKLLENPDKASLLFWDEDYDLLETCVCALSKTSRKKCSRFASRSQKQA

B1: MeNINV1 (Manihot esculenta) (protein)
chain: T1 sequence (G5DC09 1-685)
notes: full-length ORF in pDR195, expressed in invertase-deficient yeast SEY2102; crude enzyme supernatant, empty-vector control

Legend:
MeNINV1 = target: T1, MeNINV1; assay: DNS reducing sugar assay, crude yeast extract; format: biochemical; settings: product inhibition of sucrose hydrolysis; pH 6.5
[1] = substrate: OC[C@H]1O[C@@](CO)(O[C@H]2O[C@H](CO)[C@@H](O)[C@H](O)[C@H]2O)[C@@H](O)[C@@H]1O; assay: DNS reducing sugar assay, crude yeast extract; format: biochemical, Manihot esculenta; settings: pH 6.5, optimum temperature 40 °C

| Molecule | DNS reducing sugar assay, crude yeast extract (MeNINV1) | Km [1] [mM] |
| --- | --- | --- |
| OCC1(O)OC[C@@H](O)[C@@H](O)[C@@H]1O (some centres unmarked) [fructose] | The addition of fructose, a decomposition product of sucrose, to the reaction solution inhibited | – |
| B1 | – | 10.59 |
